This passage reports TGI results from PubChem BioAssay (NCI).

Some test systems named below: SF-295 CNS; SF-539 CNS; ACHN renal; U251 CNS; HCT-15 colon; MALME-3M melanoma; COLO 205 colon; SW-620 colon; HOP-92 NSCLC; OVCAR-5 ovarian; HS 578T breast; T-47D breast; TK-10 renal; A549 NSCLC; OVCAR-8 ovarian; OVCAR-3 ovarian.
What all share (experiment): NCI anticancer screen, dose series, 48 h

Structures are written as SMILES.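 Values below derive from 48-hour exposures of cells grown in 96-well plates, with endpoints linearly interpolated between the two concentrations bracketing the appropriate inhibition level. TGI denotes the concentration required for complete inhibition of growth.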 Where only a bound is given, the exact number is not on record here.

For the compound `Cn1cc(C(=O)c2nccc3c2cnc2ccccc23)ccc1=O`, the TGI in the assay on SF-295 CNS, with SF-539 CNS, in the assay on ACHN renal, in the assay on U251 CNS, with HCT-15 colon and in the assay with MALME-3M melanoma was greater than 100 µM throughout. The TGI in the assay with COLO 205 colon, in the assay on SW-620 colon, in the assay with HOP-92 NSCLC, in the assay with OVCAR-5 ovarian, in the assay on HS 578T breast and in the assay with T-47D breast was greater than 100 µM throughout. The TGI in the assay with TK-10 renal, with A549 NSCLC, in the assay on OVCAR-8 ovarian and with OVCAR-3 ovarian was greater than 100 µM throughout.

In the case of `S=c1[nH]nc(COc2ccc3c(c2)CCCC3)n1/N=C/c1ccc(Cl)cc1`, the TGI amounted to 33.7 µM in the assay on SF-295 CNS; 32.8 µM in the assay with SF-539 CNS; 36 µM with ACHN renal; 34.6 µM in the assay on U251 CNS; 41 µM in the assay on HCT-15 colon; 33.1 µM in the assay with MALME-3M melanoma. Also, the TGI with COLO 205 colon is 31.2 µM; in the assay with SW-620 colon, 32.7 µM; in the assay on HOP-92 NSCLC it was 32.9 µM; in the assay on OVCAR-5 ovarian, 32 µM; in the assay with HS 578T breast, 39.7 µM; in the assay on T-47D breast, 30.3 µM. The TGI in the assay with TK-10 renal is 38.6 µM; with A549 NSCLC it was 35.8 µM; with OVCAR-8 ovarian it was 31.8 µM; with OVCAR-3 ovarian, 30.7 µM.

`COc1ccc(OC)c(C2CCc3nc4nc(N)nc(N)c4cc3C2)c1` (stereo not drawn): the TGI in the assay with SF-295 CNS amounted to 26.5 µM; in the assay with SF-539 CNS, 17.8 µM; with ACHN renal it was 29.5 µM; in the assay on U251 CNS it was 3.28 µM; in the assay on HCT-15 colon it was 47.5 µM; in the assay on MALME-3M melanoma it was 3.57 µM. Also, the TGI in the assay with COLO 205 colon was determined as 17.9 µM; in the assay with SW-620 colon, 9.12 µM; in the assay on HOP-92 NSCLC it was 5.76 µM; in the assay with OVCAR-5 ovarian, 23.3 µM; with HS 578T breast it was 16.1 µM; with T-47D breast it was 3.78 µM. Further, the TGI with TK-10 renal came out at 23.6 µM; with A549 NSCLC, 31.4 µM; with OVCAR-8 ovarian, 6.93 µM; in the assay on OVCAR-3 ovarian, 3.54 µM.

For `O=c1c(O)c(-c2ccc(O)cc2O)oc2cc(O)cc(O)c12`, the TGI in the assay on SF-295 CNS, in the assay with SF-539 CNS, in the assay with ACHN renal, in the assay with U251 CNS, in the assay with HCT-15 colon and in the assay on MALME-3M melanoma was greater than 100 µM throughout. The TGI with COLO 205 colon, in the assay on SW-620 colon, in the assay on HOP-92 NSCLC, in the assay on OVCAR-5 ovarian, in the assay on HS 578T breast and in the assay on T-47D breast was greater than 100 µM in each case. The TGI in the assay with TK-10 renal, in the assay on A549 NSCLC, in the assay with OVCAR-8 ovarian and with OVCAR-3 ovarian was greater than 100 µM in each case.

With `CCOc1c2ccsc2c(OCC)c2ccsc12`, the TGI is 9.84 µM with SF-295 CNS; 9.79 µM in the assay on SF-539 CNS; greater than 100 µM with ACHN renal; greater than 100 µM in the assay with U251 CNS; greater than 30.7 µM in the assay on HCT-15 colon; greater than 100 µM with MALME-3M melanoma. In addition, the TGI was greater than 41.1 µM with COLO 205 colon; greater than 100 µM in the assay on SW-620 colon; 86.2 µM in the assay with HOP-92 NSCLC; greater than 100 µM in the assay with OVCAR-5 ovarian; greater than 73.7 µM in the assay on HS 578T breast; greater than 100 µM in the assay on T-47D breast. Moreover, the TGI in the assay on TK-10 renal was greater than 100 µM; in the assay with A549 NSCLC, greater than 100 µM; with OVCAR-8 ovarian, greater than 100 µM; in the assay with OVCAR-3 ovarian, 61.1 µM.

Turning to `Clc1ccc(-c2nn3c(CCCCCCCCc4nnc5sc(-c6ccc(Cl)cc6)nn45)nnc3s2)cc1`, the TGI is 46.6 µM in the assay on SF-295 CNS; 52.6 µM in the assay on SF-539 CNS; greater than 100 µM in the assay with ACHN renal; 39.8 µM in the assay with U251 CNS; greater than 100 µM with HCT-15 colon; greater than 90.4 µM in the assay on MALME-3M melanoma. Moreover, the TGI in the assay with COLO 205 colon was greater than 100 µM; in the assay on SW-620 colon it was greater than 100 µM; in the assay on HOP-92 NSCLC, greater than 100 µM; in the assay on OVCAR-5 ovarian, greater than 100 µM; with HS 578T breast, greater than 100 µM; in the assay on T-47D breast, 34 µM. The TGI is greater than 100 µM in the assay with TK-10 renal, greater than 64.5 µM in the assay with A549 NSCLC, greater than 94.8 µM in the assay on OVCAR-8 ovarian and 59 µM with OVCAR-3 ovarian.

With `C/C(=N/NC(=S)Nc1ccccc1Cl)c1ccccn1`, the TGI stood at 9.57 µM with SF-295 CNS; 7.56 µM in the assay with SF-539 CNS; 8.59 µM in the assay with ACHN renal; 15.3 µM in the assay on U251 CNS; 18 µM with HCT-15 colon; 13 µM with MALME-3M melanoma. Further, the TGI in the assay with COLO 205 colon amounted to 2.54 µM; in the assay with SW-620 colon, 29.9 µM; with HOP-92 NSCLC it was 22.7 µM; with OVCAR-5 ovarian, 5.26 µM; in the assay with HS 578T breast it was 40.2 µM; with T-47D breast, 6.82 µM. For the same compound, the TGI with TK-10 renal is 17.1 µM; with A549 NSCLC, 29.6 µM; with OVCAR-8 ovarian, 9.18 µM; in the assay with OVCAR-3 ovarian it was 10.9 µM.

For the compound `Cc1ccc(Nc2nc(=S)[nH]c3[nH]ncc23)cc1`, the TGI in the assay on SF-295 CNS, in the assay on SF-539 CNS, with ACHN renal, with U251 CNS, in the assay on HCT-15 colon and in the assay on MALME-3M melanoma was greater than 100 µM each time. Besides, the TGI in the assay on COLO 205 colon, with SW-620 colon, in the assay with HOP-92 NSCLC, in the assay on OVCAR-5 ovarian, in the assay on HS 578T breast and with T-47D breast was greater than 100 µM in each case. In addition, the TGI in the assay with TK-10 renal, in the assay on A549 NSCLC, in the assay on OVCAR-8 ovarian and in the assay with OVCAR-3 ovarian was greater than 100 µM in each case.
